# Reference: patent publication US12331224B2, “Two-part epoxy compositions for adherent coatings of storage articles” (SWIMC LLC, priority 2019, dated 2025)
# What was measured:
# MCF-7, clone WS8, cells = experiment: MCF-7 cell proliferation assay of estrogenic agonist activity; assay type: cell-based, human; settings: logarithmic (base 10) Relative Proliferative Effect in MCF-7 assay; expected or measured values
# Text: As used herein, the terms “estrogenic agonist activity” or “estrogenic activity” refer to the ability of a compound to mimic hormone-like activity through interaction with an endogenous estrogen receptor, typically an endogenous human estrogen receptor. […] The MCF-7 assay uses MCF-7, clone WS8, cells to measure whether and to what extent a substance induces cell proliferation via estrogen receptor (ER)-mediated pathways. The method is described in “Test Method Nomination: MCF-7 Cell Proliferation Assay of Estrogenic agonist activity” submitted for validation by CertiChem, Inc. to the National Toxicology Program Interagency Center for the Evaluation of Alternative Toxicological Methods (NICEA™) on Jan. 19, 2006 (available online at http://iccvam.niehs.nih.gov/methods/endocrine/endodocs/SubmDoc.pdf). As a brief summary of the assay, MCF-7, clone WS8, cells are maintained at 37° C. in RMPI (or Roswell Park Memorial Institute medium) containing Phenol Red (e.g., GIBCO Catalog Number 11875119) and supplemented with the indicated additives for routine culture. An aliquot of cells maintained at 37° C. are grown for 2 days in phenol-free media containing 5% charcoal stripped fetal bovine serum in a 25 cm^2 tissue culture flask. Using a robotic dispenser such as an epMotion 5070 unit, MCF-7 cells are then seeded at 400 cells per well in 0.2 ml of hormone-free culture medium in Corning 96-well plates. The cells are adapted for 3 days in the hormone-free culture medium prior to adding the chemical to be assayed for estrogenic agonist activity. The media containing the test chemical is replaced daily for 6 days. At the end of the 7-day exposure to the test chemical, the media is removed, the wells are washed once with 0.2 ml of HBSS (Hanks' Balanced Salt Solution), and then assayed to quantify amounts of DNA per well using a micro-plate modification of the Burton diphenylamine (DPA) assay, which is used to calculate the level of cell proliferation.
# RPE is the ratio between the EC50 of the test chemical and the EC50 of the control substance 17-beta estradiol times 100, where EC50 is “effective concentration 50%” or half-maximum stimulation concentration for cell proliferation measured as total DNA in the MCF-7 assay.
# Tables 1 and 2 provided below include some compounds and their expected or measured logarithmic RPE values in the MCF-7 assay.
# estrogen receptor = target: T1, estrogen receptor (Homo sapiens, UniProt P03372); experiment: suitable in vitro assay of estrogenic agonist activity correlated to the MCF-7 assay; settings: suitable in vitro assay correlated to MCF-7 assay
# T1 sequence (P03372 1-595): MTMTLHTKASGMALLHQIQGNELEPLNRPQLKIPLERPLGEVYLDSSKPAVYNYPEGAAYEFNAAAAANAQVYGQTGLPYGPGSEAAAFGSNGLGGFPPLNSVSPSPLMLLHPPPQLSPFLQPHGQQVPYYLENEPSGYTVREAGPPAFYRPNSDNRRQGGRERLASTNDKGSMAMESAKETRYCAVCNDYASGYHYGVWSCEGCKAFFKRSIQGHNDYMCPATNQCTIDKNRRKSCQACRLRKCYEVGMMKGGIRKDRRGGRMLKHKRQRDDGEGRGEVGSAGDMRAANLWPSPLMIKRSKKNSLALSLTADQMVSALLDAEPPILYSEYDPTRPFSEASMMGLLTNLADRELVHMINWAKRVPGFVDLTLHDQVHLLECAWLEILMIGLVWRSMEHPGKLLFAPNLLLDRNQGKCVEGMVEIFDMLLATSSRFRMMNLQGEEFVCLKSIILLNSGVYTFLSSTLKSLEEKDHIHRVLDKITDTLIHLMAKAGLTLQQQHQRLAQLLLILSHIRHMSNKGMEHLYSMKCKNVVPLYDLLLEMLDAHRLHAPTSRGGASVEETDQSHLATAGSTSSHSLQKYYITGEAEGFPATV
# Text: While not intending to be bound by any theory, it is believed that the positioning of one or more R^1 groups at an ortho position relative to the oxygen atom depicted in Formulas (I) and (IA) may be particularly beneficial in reducing or eliminating estrogenic agonist activity.
# [1] = Gel-time comparison of two-part epoxy compositions with curing agents; assay type: physicochemical; settings: for Difference in gel time: TMBPFDGE minus BADGE; for Gel time: 1:1 stoichiometric mix, 100 g; for Gel-Time % increase: from BADGE to TMBPFDGE
# Method: Two-part epoxy compositions of bisphenol A diglycidyl ether (BADGE) (e.g., molecular weight of approximately 340 g/mol) and tetramethyl bisphenol F diglycidyl ether (TMBPFDGE) were prepared and mixed with various amine-based curing agents to compare the respective gel times of the compositions. The BADGE and TMBPFDGE monomer epoxides (e.g., molecular weight of approximately 340.4 g/mol and 368.6 g/mol respectively) were reduced to approximately 90% weight solids with xylene solvent. Gel times were measured using 100 g mass samples with a Paul N. Gardner Co, Inc. gel time recorder model S-5154. The gel-time values reported are in minutes, along with the difference between BADGE and TMBPFDGE compositions using the same curing agent, and the percent increase in gel time from BADGE to TMBPFDGE.
# [2] = curing agent ANACAMIDE 375A (polyamide)
# [3] = curing agent ANACAMINE 503 (amidoamine)
# [4] = curing agent ANACAMINE 2393 (cycloaliphatic amine)
# [5] = curing agent CARDOLITE 3040 (phenalkamide)
# [6] = curing agent CARDOLITE NC541 (phenalkamine)
# [7] = curing agent GABEPRO GPM-830CB (mercaptan)
# [8] = curing agent TETA, epoxy 90% solids in xylene
smiles,measurement,setting,value
O=S(=O)(c1ccc(O)cc1)c1ccc(O)cc1 [Bisphenol S],Log RPE,"MCF-7, clone WS8, cells",−2
"CC(C)(C)c1cc(O)c(C(C)(C)C)cc1O [2,5-di-t-butylhydroquinone]",estrogenic agonist activity,estrogen receptor,do not exhibit appreciable estrogenic agonist activity
"Cc1cc(Cc2cc(C)cc(C(C)(C)C)c2O)c(O)c(C(C)(C)C)c1 [2,2′-methylenebis(4-methyl-6-t-butylphenol)]",estrogenic agonist activity,estrogen receptor,do not exhibit appreciable estrogenic agonist activity
Oc1ccc(Cc2ccc(O)cc2)cc1 [Bisphenol F],Log RPE,"MCF-7, clone WS8, cells",−2
C[C@]12CC[C@@H]3c4ccc(O)cc4CC[C@H]3[C@@H]1CC[C@@H]2O [17β-estradiol],Log RPE,"MCF-7, clone WS8, cells",2.00
"Cc1cc(Cc2cc(C)cc(C3(C)CCCCC3)c2O)c(O)c(C2(C)CCCCC2)c1 [2,2′-Methylenebis(6-(1-methylcyclohexyl)-4-methylphenol]",Log RPE,"MCF-7, clone WS8, cells",less than −4
"CC(C)(C)c1cc(Cc2cc(C(C)(C)C)c(O)c(C(C)(C)C)c2)cc(C(C)(C)C)c1O [4,4′-methylenebis(2,6-di-t-butylphenol)]",estrogenic agonist activity,estrogen receptor,do not exhibit appreciable estrogenic agonist activity
"Cc1cc(Cc2cc(C)c(OCC3CO3)c(C)c2)cc(C)c1OCC1CO1 (centres unmarked) [TMBPFDGE, tetramethyl bisphenol F diglycidyl ether]",Difference in gel time,[1]; [2],454 min
same,Difference in gel time,[1]; [3],469 min
same,Difference in gel time,[1]; [4],343 min
same,Difference in gel time,[1]; [5],370 min
same,Difference in gel time,[1]; [6],206 min
same,Difference in gel time,[1]; [7],82 min
same,Difference in gel time,[1]; curing agent PACM,510 min
same,Difference in gel time,[1]; curing agent TETA,333 min
same,Gel time,[1]; [2],766 min
same,Gel time,[1]; [3],680 min
same,Gel time,[1]; [4],398 min
same,Gel time,[1]; [5],568 min
same,Gel time,[1]; [6],292 min
same,Gel time,[1]; [7],98 min
same,Gel time,[1]; curing agent PACM,785 min
same,Gel time,[1]; [8],407 min
same,Gel-Time % increase,[1]; [2],146%
same,Gel-Time % increase,[1]; [3],222%
same,Gel-Time % increase,[1]; [4],624%
same,Gel-Time % increase,[1]; [5],187%
same,Gel-Time % increase,[1]; [6],240%
same,Gel-Time % increase,[1]; [7],513%
same,Gel-Time % increase,[1]; curing agent PACM,185%
same,Gel-Time % increase,[1]; curing agent TETA,450%
"Cc1cc(Cc2cc(C)c(O)c(C)c2)cc(C)c1O [4,4′-methylenebis(2,6-dimethylphenol)]",estrogenic agonist activity,estrogen receptor,do not exhibit appreciable estrogenic agonist activity
"CC(C)(c1ccc(OCC2CO2)cc1)c1ccc(OCC2CO2)cc1 (centres unmarked) [BADGE, bisphenol A diglycidyl ether, reference compound]",Gel time,[1]; [2],312 min
same,Gel time,[1]; [3],211 min
same,Gel time,[1]; [4],55 min
same,Gel time,[1]; [5],198 min
same,Gel time,[1]; [6],86 min
same,Gel time,[1]; [7],16 min
same,Gel time,[1]; curing agent PACM,275 min
same,Gel time,[1]; [8],74 min
"CCCC(c1cc(C(C)(C)C)c(O)cc1C)c1cc(C(C)(C)C)c(O)cc1C [4,4′-butylidenebis(2-t-butyl-5-methylphenol)]",estrogenic agonist activity,estrogen receptor,do not exhibit appreciable estrogenic agonist activity
